Experimental data reported in patent US20260262643A1, “HERBICIDAL BENZOXAZINES” (FMC CORPORATION, priority 2022, published 2026).

Columns and labels:
[1] = test system: ryegrass, Italian; assay: Test C postemergence; format: in vivo, Lolium multiflorum; settings: 10 days, 0 to 100 scale (0 no effect, 100 complete control)
Outline: (§1)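 Visual injury ratings on a 0–100 scale (100 = complete control) were made against untreated controls 10 days after treatment in the greenhouse. Compounds, formulated with surfactant in non-phytotoxic solvent, were sprayed on soil preemergence or onto one- to two-leaf plants 2–10 cm tall postemergence.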

[2] = test system: barnyardgrass; assay: Test C postemergence; format: in vivo, Echinochloa crusgalli; settings: 10 days, 0 to 100 scale (0 no effect, 100 complete control)
Outline: as §1

[3] = test system: wheat; assay: Test C postemergence; format: in vivo, Triticum aestivum; settings: 10 days, 0 to 100 scale (0 no effect, 100 complete control)
Outline: as §1

[4] = test system: horseweed; assay: Test C postemergence; format: in vivo, Erigeron canadensis; settings: 10 days, 0 to 100 scale (0 no effect, 100 complete control)
Outline: as §1

[5] = test system: kochia; assay: Test C preemergence; format: in vivo, Bassia scoparia
Outline: as §1

[6] = test system: oat, wild; assay: Test C preemergence; format: in vivo, Avena fatua
Outline: as §1

[7] = test system: corn; assay: Test C postemergence; format: in vivo, Zea mays; settings: 10 days, 0 to 100 scale (0 no effect, 100 complete control)
Outline: as §1

[8] = test system: soybean; assay: Test C postemergence; format: in vivo, Glycine max; settings: 10 days, 0 to 100 scale (0 no effect, 100 complete control)
Outline: as §1

[9] = test system: ducksalad; assay: Test D flooded paddy test; format: in vivo, Heteranthera limosa; settings: 250 g ai/ha, applied to paddy water, visual rating after 13 to 14 days, scale 0 to 100 (0 no effect, 100 complete control)
Outline: (§2)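 Visual ratings from 0, meaning no effect, to 100, meaning complete control, were assigned against untreated controls 13 to 14 days after compounds were added to the floodwater of pots kept 3 cm deep, with plants at the 2-leaf stage.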

[10] = test system: barnyardgrass; assay: Test D flooded paddy test; format: in vivo, Echinochloa crus-galli; settings: 250 g ai/ha, applied to paddy water, visual rating after 13 to 14 days, scale 0 to 100 (0 no effect, 100 complete control)
Outline: as §2

[11] = test system: oat, wild; assay: Test C postemergence; format: in vivo, Avena fatua; settings: 10 days, 0 to 100 scale (0 no effect, 100 complete control)
Outline: as §1

[12] = test system: wheat; assay: Test C preemergence; format: in vivo, Triticum aestivum
Outline: as §1

[13] = test system: pigweed, palmer; assay: Test C preemergence; format: in vivo, Amaranthus palmeri
Outline: as §1

[14] = test system: galium; assay: Test C postemergence; format: in vivo, Galium aparine; settings: 10 days, 0 to 100 scale (0 no effect, 100 complete control)
Outline: as §1

[15] = test system: ragweed; assay: Test C preemergence; format: in vivo, Ambrosia artemisiifolia
Outline: as §1

[16] = test system: blackgrass; assay: Test C postemergence; format: in vivo, Alopecurus myosuroides; settings: 10 days, 0 to 100 scale (0 no effect, 100 complete control)
Outline: as §1

[17] = test system: blackgrass; assay: Test C preemergence; format: in vivo, Alopecurus myosuroides
Outline: as §1

[18] = test system: rice; assay: Test D flooded paddy test; format: in vivo, Oryza sativa; settings: 250 g ai/ha, applied to paddy water, visual rating after 13 to 14 days, scale 0 to 100 (0 no effect, 100 complete control)
Outline: as §2

[19] = test system: ragweed; assay: Test C postemergence; format: in vivo, Ambrosia artemisiifolia; settings: 10 days, 0 to 100 scale (0 no effect, 100 complete control)
Outline: as §1

[20] = test system: soybean; assay: Test C preemergence; format: in vivo, Glycine max
Outline: as §1

[21] = test system: barnyardgrass; assay: Test C preemergence; format: in vivo, Echinochloa crusgalli
Outline: as §1

[22] = test system: foxtail, giant; assay: Test C postemergence; format: in vivo, Setaria faberi; settings: 10 days, 0 to 100 scale (0 no effect, 100 complete control)
Outline: as §1

[23] = test system: ryegrass, Italian; assay: Test C preemergence; format: in vivo, Lolium multiflorum
Outline: as §1

[24] = test system: pigweed, palmer; assay: Test C postemergence; format: in vivo, Amaranthus palmeri; settings: 10 days, 0 to 100 scale (0 no effect, 100 complete control)
Outline: as §1

[25] = test system: corn; assay: Test C preemergence; format: in vivo, Zea mays
Outline: as §1

[26] = test system: kochia; assay: Test C postemergence; format: in vivo, Bassia scoparia; settings: 10 days, 0 to 100 scale (0 no effect, 100 complete control)
Outline: as §1

[27] = test system: sedge, umbrella; assay: Test D flooded paddy test; format: in vivo, Cyperus difformis; settings: 250 g ai/ha, applied to paddy water, visual rating after 13 to 14 days, scale 0 to 100 (0 no effect, 100 complete control)
Outline: as §2

[28] = test system: foxtail, giant; assay: Test C preemergence; format: in vivo, Setaria faberi
Outline: as §1

[29] = 500 g ai/ha, preemergence, 0 to 100 scale (0 no effect, 100 complete control)
[30] = Preemergence, 125 g ai/ha, 0 to 100 scale, 0 no effect, 100 complete control

## C=C(C)c1cc(C(=O)N2C[C@H](C)Oc3c(Cl)cccc32)cc(-n2cncn2)c1 [Compound 317]
[1]; 500 g ai/ha, postemergence
  Plant response rating, Ryegrass, Italian: 40
[1]; Postemergence, 125 g ai/ha
  Plant response rating, Ryegrass, Italian: 0
[2]; 500 g ai/ha, postemergence
  Plant response rating, Barnyardgrass: 70
[2]; Postemergence, 125 g ai/ha
  Plant response rating, Barnyardgrass: 10
[3]; 500 g ai/ha, postemergence
  Plant response rating, Wheat: 20
[3]; Postemergence, 125 g ai/ha
  Plant response rating, Wheat: 10
[4]; 500 g ai/ha, postemergence
  Plant response rating, Horseweed: 0
[4]; Postemergence, 125 g ai/ha
  Plant response rating, Horseweed: 0
[5]; [29]
  Kochia plant response rating: 0
[5]; [30]
  Plant response rating, Kochia: 0
[6]; [29]
  Oat, Wild plant response rating: 40
[6]; [30]
  Plant response rating, Oat, Wild: 0
[7]; 500 g ai/ha, postemergence
  Plant response rating, Corn: 40
[7]; Postemergence, 125 g ai/ha
  Plant response rating, Corn: 10
[8]; 500 g ai/ha, postemergence
  Plant response rating, Soybean: 100
[8]; Postemergence, 125 g ai/ha
  Plant response rating, Soybean: 70
[9]
  Plant response rating, Ducksalad (Flood): 0
[10]
  Plant response rating, Barnyardgrass (Flood): 0
[11]; 500 g ai/ha, postemergence
  Plant response rating, Oat, Wild: 30
[11]; Postemergence, 125 g ai/ha
  Plant response rating, Oat, Wild: 0
[12]; [29]
  Wheat plant response rating: 0
[12]; [30]
  Plant response rating, Wheat: 0
[13]; [29]
  Pigweed, Palmer plant response rating: 90
[13]; [30]
  Plant response rating, Pigweed, Palmer: 20
[14]; 500 g ai/ha, postemergence
  Plant response rating, Galium: 70
[14]; Postemergence, 125 g ai/ha
  Plant response rating, Galium: 50
[15]; [29]
  Ragweed plant response rating: 0
[15]; [30]
  Plant response rating, Ragweed: 0
[16]; 500 g ai/ha, postemergence
  Plant response rating, Blackgrass: 60
[16]; Postemergence, 125 g ai/ha
  Plant response rating, Blackgrass: 0
[17]; [29]
  Blackgrass plant response rating: 50
[17]; [30]
  Plant response rating, Blackgrass: 0
[18]
  Plant response rating, Rice (Flood): 0
[19]; 500 g ai/ha, postemergence
  Plant response rating, Ragweed: 0
[19]; Postemergence, 125 g ai/ha
  Plant response rating, Ragweed: 0
[20]; [29]
  Soybean plant response rating: 0
[20]; [30]
  Plant response rating, Soybean: 0
[21]; [29]
  Barnyardgrass plant response rating: 50
[21]; [30]
  Plant response rating, Barnyardgrass: 0
[22]; 500 g ai/ha, postemergence
  Plant response rating, Foxtail, Giant: 70
[22]; Postemergence, 125 g ai/ha
  Plant response rating, Foxtail, Giant: 10
[23]; [29]
  Ryegrass, Italian plant response rating: 60
[23]; [30]
  Plant response rating, Ryegrass, Italian: 40
[24]; 500 g ai/ha, postemergence
  Plant response rating, Pigweed, Palmer: 50
[24]; Postemergence, 125 g ai/ha
  Plant response rating, Pigweed, Palmer: 10
[25]; [29]
  Corn plant response rating: 10
[25]; [30]
  Plant response rating, Corn: 0
[26]; 500 g ai/ha, postemergence
  Plant response rating, Kochia: 70
[26]; Postemergence, 125 g ai/ha
  Plant response rating, Kochia: 20
[27]
  Plant response rating, Sedge, Umbrella (Flood): 0
[28]; [29]
  Foxtail, Giant plant response rating: 90
[28]; [30]
  Plant response rating, Foxtail, Giant: 10
